Reference: US20040186104A1, “Novel pyridinone and related heterocyclic derivatives” (priority 2001, published 2004)

Columns and labels:
[1] = target: T1, human kappa opioid receptor (Homo sapiens, UniProt P41145); assay: Binding assay for opioid receptor transfected cell membrane in 96-well format (filtration), kappa opioid receptor; conditions: HEK293S KOR cell membranes, radioligand 125I-(D-Pro10)-Dynorphin A (1-11), control inhibitor
T1 construct: expressed in transfected cells; host or cells: HEK293S KOR cells (membrane preparations)
Description: (§1) Compounds of the invention, prepared using the general methods described above, may be tested for their ability to bind to the human kappa opioid receptor using standard procedures well known to those skilled in the art.
Binding Assay for Opioid Receptor Transfected Cell Membrane in 96-Well Format
Principle: The procedures describe how to perform and interpret receptor binding experiments designed to determine the affinities of new compounds for μ, δ and κ receptors. The total and nonspecific binding are determined in the absence and presence of selective opioid receptor radiolabeled ligand.
Procedure for Kappa Opioid Receptor:
The total and non-specific binding are determined in absence and presence of 1 μM of Asimadoline and added with the multichannel pipett in respectively well of the 96 well plate (see table 1).
The radioligand 125I-(D-pro)-Dynorphin A (1-1 1) is added containing 30 000-50 000 CPM per well.
Membranes are thawed at room temperature and diluted in assay buffer to the appropriate amount of protein, homogenized 5-10 times in glas/glas, and added to the 96 well plate.
Vortex the plate 1 minute, incubate at room temperature for 60-75 minutes, vortex 1 minute and the reaction was terminated by rapid filtration (Micro96 Harvester, Skatron Instruments, Norway) to separate bound from free ligand. […]

[2] = target: T1, human kappa opioid receptor; assay: SPA binding assay for kappa-opioid receptor transfected cell membrane in 96-well format; conditions: HEK293S KOR cell membranes, radioligand 125I-(D-Pro10)-Dynorphin A (1-11), control inhibitor
Description: as §1
SPA Binding Assay for Kappa-Opioid Receptor Transfected Cell Membrane in 96-Well Format
Principle: Membranes containing the kappa opioid receptor are coupled to SPA beads, the ability of tested compounds to dislocate a radio ligand the protein agonist Dynorphin. (^125I-(D-Pro^10)-Dynorphin A (1-11)) are determined. Only radioaktivity in close proximity to the beads, that is bound to membranes attached to beads, will be measured.
Procedure: The total and non-specific binding are determined in absence and presence of 0.5 μM of Dynorphin, radioligand is added containing 15 000-20 000 CPM per well.
The membrane and SPA beads precouples over night (18-22 hours) in assay buffer at room temperature on a shaking platform, with rotary movement. The mixture of membrane and beads are pipetted together with the assay-buffer, agents and the radioligand into a 96-well microtiterplate.
The plate is incubated for 1 hours at room temperature, and counted in a WALLAC TRILUX MicroBeta.
Percentage inhibition is calculated for each well from the two standards, 0% and 100% inhibition.
The binding buffer, 50 mM Tris, 3 mM MgCl2, stored at +4° C. […]

T1 sequence (P41145 whole entry): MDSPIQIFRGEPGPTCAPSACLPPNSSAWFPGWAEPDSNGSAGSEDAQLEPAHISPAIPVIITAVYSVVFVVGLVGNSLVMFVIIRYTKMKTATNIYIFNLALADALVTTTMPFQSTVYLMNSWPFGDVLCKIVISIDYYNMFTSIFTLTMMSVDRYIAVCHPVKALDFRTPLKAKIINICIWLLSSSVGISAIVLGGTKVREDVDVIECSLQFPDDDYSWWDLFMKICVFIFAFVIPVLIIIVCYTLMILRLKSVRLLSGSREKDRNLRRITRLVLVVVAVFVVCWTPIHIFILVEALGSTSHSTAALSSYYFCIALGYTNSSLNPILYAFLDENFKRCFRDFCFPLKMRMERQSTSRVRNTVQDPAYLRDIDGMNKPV

Question: How did the IC50 [1] turn out when `CN(C(=O)C(c1ccccc1)c1ccccc1)[C@H](CN1CC[C@H](O)C1)c1ccccc1` [Asimadoline] was run?
Answer: Its IC50 is 4 to 10 nM.

Question: And the IC50 [2]?
Answer: The IC50 was ~4 nM.
